IC50 data for 34 compounds are collected here from patent publication US9453026B2, “ACC inhibitors and uses thereof” (Gilead Apollo, Inc., priority 2011, dated 2016).

ACC2, sequence (O00763 whole entry, species assumed): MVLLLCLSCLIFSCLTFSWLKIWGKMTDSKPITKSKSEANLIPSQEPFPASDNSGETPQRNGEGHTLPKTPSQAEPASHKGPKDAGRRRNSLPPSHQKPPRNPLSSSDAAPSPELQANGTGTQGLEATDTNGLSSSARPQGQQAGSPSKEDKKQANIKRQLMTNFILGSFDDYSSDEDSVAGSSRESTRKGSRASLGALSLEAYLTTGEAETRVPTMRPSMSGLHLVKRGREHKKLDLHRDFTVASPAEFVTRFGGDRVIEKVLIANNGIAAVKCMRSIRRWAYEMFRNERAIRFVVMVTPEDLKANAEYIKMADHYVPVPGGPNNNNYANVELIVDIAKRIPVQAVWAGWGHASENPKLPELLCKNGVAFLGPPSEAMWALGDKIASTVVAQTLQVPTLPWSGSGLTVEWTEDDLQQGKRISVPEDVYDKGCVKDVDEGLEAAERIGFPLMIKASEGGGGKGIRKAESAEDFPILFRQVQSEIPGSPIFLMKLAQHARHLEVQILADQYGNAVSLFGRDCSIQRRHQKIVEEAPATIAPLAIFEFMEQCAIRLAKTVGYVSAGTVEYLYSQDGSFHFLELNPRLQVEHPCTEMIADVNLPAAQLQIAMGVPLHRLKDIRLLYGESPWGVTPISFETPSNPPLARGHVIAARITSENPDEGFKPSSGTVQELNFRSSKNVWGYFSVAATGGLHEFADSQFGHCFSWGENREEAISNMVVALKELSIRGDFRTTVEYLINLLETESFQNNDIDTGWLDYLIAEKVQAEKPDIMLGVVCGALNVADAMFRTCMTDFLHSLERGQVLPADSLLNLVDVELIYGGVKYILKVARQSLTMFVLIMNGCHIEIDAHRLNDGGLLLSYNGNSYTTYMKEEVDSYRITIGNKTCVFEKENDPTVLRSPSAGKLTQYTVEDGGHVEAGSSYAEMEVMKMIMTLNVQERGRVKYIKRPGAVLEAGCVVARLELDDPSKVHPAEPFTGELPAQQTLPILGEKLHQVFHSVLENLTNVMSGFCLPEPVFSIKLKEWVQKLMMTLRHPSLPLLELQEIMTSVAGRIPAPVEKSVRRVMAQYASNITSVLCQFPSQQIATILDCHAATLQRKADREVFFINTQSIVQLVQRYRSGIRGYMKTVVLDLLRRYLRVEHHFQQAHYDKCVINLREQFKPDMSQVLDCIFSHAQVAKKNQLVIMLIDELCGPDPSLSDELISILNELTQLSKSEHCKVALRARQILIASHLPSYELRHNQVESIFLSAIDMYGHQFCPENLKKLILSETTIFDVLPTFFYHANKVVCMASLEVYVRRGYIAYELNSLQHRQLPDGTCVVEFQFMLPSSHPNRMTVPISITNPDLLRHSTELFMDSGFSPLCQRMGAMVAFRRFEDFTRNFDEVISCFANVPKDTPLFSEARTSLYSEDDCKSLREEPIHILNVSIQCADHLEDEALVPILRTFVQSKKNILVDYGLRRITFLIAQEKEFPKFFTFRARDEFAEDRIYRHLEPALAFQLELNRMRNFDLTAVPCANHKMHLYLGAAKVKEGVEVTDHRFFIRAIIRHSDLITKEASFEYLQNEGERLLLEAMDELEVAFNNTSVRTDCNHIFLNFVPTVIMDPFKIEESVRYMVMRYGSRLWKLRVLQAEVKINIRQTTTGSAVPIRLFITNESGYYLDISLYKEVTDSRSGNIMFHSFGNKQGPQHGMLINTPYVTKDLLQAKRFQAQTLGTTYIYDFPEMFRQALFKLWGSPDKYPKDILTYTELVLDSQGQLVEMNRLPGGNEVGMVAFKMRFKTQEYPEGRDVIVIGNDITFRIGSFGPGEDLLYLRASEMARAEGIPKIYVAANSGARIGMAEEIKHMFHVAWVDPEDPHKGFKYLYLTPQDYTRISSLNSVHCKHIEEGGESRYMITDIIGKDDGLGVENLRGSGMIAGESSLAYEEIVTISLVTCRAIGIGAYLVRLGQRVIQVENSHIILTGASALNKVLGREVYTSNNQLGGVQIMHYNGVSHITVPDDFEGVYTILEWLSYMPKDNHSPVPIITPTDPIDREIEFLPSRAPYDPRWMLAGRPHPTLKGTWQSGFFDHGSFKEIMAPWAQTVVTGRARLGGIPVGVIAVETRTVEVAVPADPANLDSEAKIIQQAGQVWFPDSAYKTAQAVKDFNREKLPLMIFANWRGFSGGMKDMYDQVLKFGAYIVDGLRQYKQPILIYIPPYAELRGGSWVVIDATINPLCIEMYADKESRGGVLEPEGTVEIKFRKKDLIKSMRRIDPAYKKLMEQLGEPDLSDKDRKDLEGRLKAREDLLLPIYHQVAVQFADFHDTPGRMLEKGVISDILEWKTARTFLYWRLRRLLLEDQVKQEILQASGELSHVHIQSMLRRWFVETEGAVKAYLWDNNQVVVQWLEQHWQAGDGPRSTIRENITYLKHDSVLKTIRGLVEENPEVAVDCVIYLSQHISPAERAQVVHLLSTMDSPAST

The experiment concerns the target ACC2 (Homo sapiens, UniProt O00763). The experiment is described as follows: In vitro ACC2 inhibition assay (ADP-Glo). It is filed as biochemical. The note with it: read-out: ACC2. As to the method:
An exemplary procedure for the in vitro ACC inhibition assay, which can be used to determine the inhibitory action of compounds of the invention toward either ACC1 or ACC2, follows. The ADP-Glo™ Kinase Assay kit from Promega was used. The ADP-Glo™ Kinase Assay is a luminescent ADP detection assay to measure enzymatic activity by quantifying the amount of ADP produced during an enzyme reaction. The assay is performed in two steps; first, after the enzyme reaction, an equal volume of ADP-Glo™ Reagent is added to terminate the reaction and deplete the remaining ATP. Second, the Kinase Detection Reagent is added to simultaneously convert ADP to ATP and allow the newly synthesized ATP to be measured using a luciferase/luciferin reaction. Luminescence can be correlated to ADP concentrations by using an ATP-to-ADP conversion curve. The detailed procedure is as follows. 50 μL of the compound being tested (600 uM in DMSO) was added to a 384-well dilution plate. The compound was diluted 1:3 in succession in DMSO for each row for 11 wells. 0.5 μL ACC2 working solution was added to 384-well white Optiplate assay plate. 0.5 μL diluted compound solution in each column from step 2 to assay plate, each row containing 2 replicates. […] The plates were incubated at room temperature for 15 minutes. 5 μL substrate working solution was added to each well to initiate reaction. […] Plates were incubated at room temperature for 60 minutes. 10 μL ADP glo reagent was added. Plates were incubated at room temperature for 40 minutes. 20 μL kinase detection reagent was added.
Data for each concentration, as well as the positive and negative controls were averaged, and the standard deviation calculated. Percent inhibition was calculated by the formula: 100× (average negative control−compound)/(average negative control−average positive control). The IC50 for each compound was calculated by fitting the data with a non-linear regression equation: Y=Bottom+(Top-Bottom)/(1+10^((Log IC50−X)*HillSlope)), where X is the log of compound concentration and Y is percent inhibition.
The compound numbers correspond to the compound numbers in Table 1.
Regarding `CCOC(=O)c1sc2c(c1C)c(=O)n(C(C)(C)C(=O)O)c(=O)n2CC(O)c1ccccc1` (stereo in doubt) [I-103, 2-[6-(ethoxycarbonyl)-1-[(2S)-2-hydroxy-2-phenylethyl]-5-methyl-2,4-dioxo-1H,2H,3H,4H-thieno[2,3-d]pyrimidin-3-yl]-2-methylpropanoic acid], the IC50 was < 1 µM.
As to `CCOC(=O)c1sc2c(c1C)c(=O)n(CC(=O)O)c(=O)n2CC(OC)c1ccccc1` (stereo in doubt) [I-105, 2-[6-(ethoxycarbonyl)-1-[(2S)-2-methoxy-2-phenylethyl]-5-methyl-2,4-dioxo-1H,2H,3H,4H-thieno[2,3-d]pyrimidin-3-yl]acetic acid], the IC50 is < 1 µM.
Regarding `O=C(O)Cn1c(=O)c2c3c(sc2n(CC(=O)c2ccccc2)c1=O)CCCC3` [I-2], the IC50 is > 50 µM.
For the compound `O=C(O)Cn1c(=O)c2c3c(sc2n(CCc2ccccc2)c1=O)CCCC3` [I-3], the IC50 was in the range of 20 to 50 µM.
For `O=C(O)Cn1c(=O)c2c3c(sc2n(CCc2ccccc2)c1=O)CCC3` [I-4], the IC50 fell in the range of 20 to 50 µM.
As for `Cc1c(C(=O)O)sc2c1c(=O)n(CCO)c(=O)n2CCc1ccccc1` [I-5], the IC50 is > 50 µM.
Under `CCOC(=O)c1sc2c(c1C)c(=O)n(CCOC)c(=O)n2CCc1ccccc1` [I-6, ethyl 3-(2-methoxyethyl)-5-methyl-2,4-dioxo-1-(2-phenylethyl)-1H,2H,3H,4H-thieno[2,3-d]pyrimidine-6-carboxylate] stands 20 to 50 µM; under `CCOC(=O)c1sc2c(c1C)c(=O)n(CC)c(=O)n2CCc1ccccc1` [I-7, ethyl 3-ethyl-5-methyl-2,4-dioxo-1-(2-phenylethyl)-1H,2H,3H,4H-thieno[2,3-d]pyrimidine-6-carboxylate], > 50 µM; under `CCOC(=O)c1sc2c(c1C)c(=O)n(CC(=O)OC(C)(C)C)c(=O)n2CCc1ccccc1` [I-8], 5 to 20 µM.
Under `CCCn1c(=O)c2c(C)c(C(=O)OCC)sc2n(CCc2ccccc2)c1=O` [I-9, ethyl 5-methyl-2,4-dioxo-1-(2-phenylethyl)-3-propyl-1H,2H,3H,4H-thieno[2,3-d]pyrimidine-6-carboxylate] stands > 50 µM; under `CCOC(=O)c1sc2c(c1C)c(=O)n(CCOCc1ccccc1)c(=O)n2CCc1ccccc1` [I-10, ethyl 3-[2-(benzyloxy)ethyl]-5-methyl-2,4-dioxo-1-(2-phenylethyl)-1H,2H,3H,4H-thieno[2,3-d]pyrimidine-6-carboxylate], > 50 µM.
On to `CCOC(=O)c1sc2c(c1C)c(=O)n(CCO)c(=O)n2CC` [I-11, ethyl 1-ethyl-3-(2-hydroxyethyl)-5-methyl-2,4-dioxo-1H,2H,3H,4H-thieno[2,3-d]pyrimidine-6-carboxylate], for which the IC50 is > 50 µM.
On to `CCOC(=O)c1sc2c(c1C)c(=O)n(CCO)c(=O)n2CCCc1ccccc1` [I-12], for which the IC50 was > 50 µM.
Turning to `CCOC(=O)c1sc2c(c1C)c(=O)n(CCO)c(=O)n2Cc1cccc2ccccc12` [I-15], the IC50 is > 50 µM.
`CCOC(=O)c1sc2c(c1C)c(=O)n(CCO)c(=O)n2Cc1ccc2ccccc2c1` [I-16, ethyl 3-(2-hydroxyethyl)-5-methyl-1-(naphthalen-2-ylmethyl)-2,4-dioxo-1H,2H,3H,4H-thieno[2,3-d]pyrimidine-6-carboxylate]: the IC50 was > 50 µM.
Take `CCOC(=O)c1sc2c(c1C)c(=O)n(CCO)c(=O)n2CCc1ccc(Cl)cc1` [I-17]: the IC50 is > 50 µM.
In the case of `CCNC(=O)c1sc2c(c1C)c(=O)n(CCO)c(=O)n2CCc1ccccc1` [I-18], the IC50 was > 50 µM.
For `CCOC(=O)c1sc2c(c1C)c(=O)n(CCO)c(=O)n2CCc1cccc(Cl)c1` [I-21], the IC50 is > 50 µM.
For `CCOC(=O)c1sc2c(c1C)c(=O)n(CCO)c(=O)n2CCc1cccc2ccccc12` [I-22] the value was > 50 µM; for `CCOC(=O)c1sc2c(c1C)c(=O)n(CCO)c(=O)n2CCc1ccccc1F` [I-23, ethyl 1-[2-(2-fluorophenyl)ethyl]-3-(2-hydroxyethyl)-5-methyl-2,4-dioxo-1H,2H,3H,4H-thieno[2,3-d]pyrimidine-6-carboxylate], 20 to 50 µM.
For `CCOC(=O)c1sc2c(c1C)c(=O)n(CCO)c(=O)n2CCc1c(F)cccc1F` [I-24], the IC50 was > 50 µM.
As for `COC(=O)c1sc2c(c1C)c(=O)n(CCO)c(=O)n2CCc1c(F)cccc1F` [I-25], the IC50 was > 50 µM.
`CCOC(=O)c1sc2c(c1C)c(=O)n(CCO)c(=O)n2CCc1ccc(F)cc1` [I-26, ethyl 1-[2-(4-fluorophenyl)ethyll]-3-(2-hydroxyethyl)-5-methyl-2,4-dioxo-1H,2H,3H,4H-thieno[2,3-d]pyrimidine-6-carboxylate]: the IC50 is 5 to 20 µM.
For `CNC(=O)c1sc2c(c1C)c(=O)n(CCO)c(=O)n2CCc1ccccc1` [I-27] the value was > 50 µM; for `CCOC(=O)c1sc2c(c1C)c(=O)n(CCO)c(=O)n2CCC1CCCCC1` [I-28], > 50 µM.
Regarding `CCOC(=O)c1sc2c(c1C)c(=O)n(CCO)c(=O)n2CCc1cc(F)cc(F)c1` [I-29, ethyl 1-[2-(3,5-difluorophenyl)ethyl]-3-(2-hydroxyethyl)-5-methyl-2,4-dioxo-1H,2H,3H,4H-thieno[2,3-d]pyrimidine-6-carboxylate], the IC50 was > 50 µM.
Take `CCOC(=O)c1sc2c(c1C)c(=O)n(CCO)c(=O)n2CCc1ccc2ccccc2c1` [I-30, ethyl 3-(2-hydroxyethyl)-5-methyl-1-[2-(naphthalen-2-yl)ethyl]-2,4-dioxo-1H,2H,3H,4H-thieno[2,3-d]pyrimidine-6-carboxylate]: the IC50 was > 50 µM.
For `CCOC(=O)c1sc2c(c1C)c(=O)n(CCCCO)c(=O)n2CCc1ccccc1` [I-34, ethyl 3-(4-hydroxybutyl)-5-methyl-2,4-dioxo-1-(2-phenylethyl)-1H,2H,3H,4H-thieno[2,3-d]pyrimidine-6-carboxylate], the IC50 was in the range of 5 to 20 µM.
On to `CCOC(=O)c1sc2c(c1C)c(=O)n(CCO)c(=O)n2Cc1csc(C)n1` [I-35], for which the IC50 was > 50 µM.
Turning to `CCOC(=O)c1sc2c(c1C)c(=O)n(CCO)c(=O)n2C(C)Cc1ccccc1` (stereo not shown) [I-36, ethyl 3-(2-hydroxyethyl)-5-methyl-2,4-dioxo-1-(1-phenylpropan-2-yl)-1H,2H,3H,4H-thieno[2,3-d]pyrimidine-6-carboxylate], the IC50 lay within 20 to 50 µM.
For `COC(=O)c1sc2c(c1C)c(=O)n(CCO)c(=O)n2CCc1ccccc1` [I-37, methyl 3-(2-hydroxyethyl)-5-methyl-2,4-dioxo-1-(2-phenylethyl)-1H,2H,3H,4H-thieno[2,3-d]pyrimidine-6-carboxylate] the value was 5 to 20 µM; for `CCOCc1sc2c(c1C)c(=O)n(CCO)c(=O)n2CCc1ccccc1` [I-38, 6-(ethoxymethyl)-3-(2-hydroxyethyl)-5-methyl-1-(2-phenylethyl)-1H,2H,3H,4H-thieno[2,3-d]pyrimidine-2,4-dione], > 50 µM; for `COCc1sc2c(c1C)c(=O)n(CCO)c(=O)n2CCc1ccccc1` [I-39, 3-(2-hydroxyethyl)-6-(methoxymethyl)-5-methyl-1-(2-phenylethyl)-1H,2H,3H,4H-thieno[2,3-d]pyrimidine-2,4-dione], 20 to 50 µM.
As to `CCCOC(=O)c1sc2c(c1C)c(=O)n(CCO)c(=O)n2CCc1ccccc1` [I-41, propyl 3-(2-hydroxyethyl)-5-methyl-2,4-dioxo-1-(2-phenylethyl)-1H,2H,3H,4H-thieno[2,3-d]pyrimidine-6-carboxylate], the IC50 was > 50 µM.
